Results published in patent US20110166066A1, “CATESTATIN (CST) AND ITS VARIANTS FOR TREATMENT OF CARDIOVASCULAR AND METABOLIC DISORDERS” (priority 2008, published 2011).
No end group written: not given here.

How the values were obtained:
Assay type in all cases: in vivo
[1] = test system: Wild-type and CgA-KO mice; assay: Heart rate variability (EKG) in sedated mice
Method: Animals. Six Wild-type and seven CgA-KO mice were used in this study (see example 1 for the details).
Mice were sedated by an intraperitoneal injection of a 1 μl solution per gm body weight, containing Ketamine (100 mg/ml)+Xylazine (20 mg/ml) and Acepromazine (10 mg/ml). Mice were gently strapped onto the surgical table in a fixed supine position with silk tape. Body temperature was continuously monitored on an analog thermometer, model 44TA (YSI, Ohio) using a rectal probe, and maintained between 36.5 and 38.5° C. throughout the experiment using a controlled heating box. The analog output signal fed into the chart recorder (AD Instruments, Colorado) and suitably amplified. The adequacy of sedation was regularly verified by absence of vibrissae twitching and withdrawal reflex to a noxious toe-pinch and was supplemented intraperitoneally as needed. Animals breathed ambient air spontaneously throughout the experimental run. Investigational agent, a nicotinic cholinergic receptor antagonist (8), CST was dissolved in distilled water and injected intraperitoneally at a volume of 70 μl from a 1 mM working solution.
EKG electrodes were attached to all four limbs (incl. reference electrode) via 30G stainless steel hypodermic needles (Popper & Sons, New York) so as to record standard bipolar Einthoven derivation (lead I, II and III) EKG signals. The EKG signals were bandpass-filtered between 0.1 and 3 kHz with a notch filter set at 60 Hz, and sampled at 2 kHz. The voltage output fed into a data acquisition system (PowerLab-8, AD Instruments) for eventual off-line measurements and analysis by chart and scope (Labchart 6) software. Heart rate and rhythm were also monitored continuously on an oscilloscope (Tektronix 5113, Oregon) throughout the experiment.
EKG traces were edited using the Chart® software package. High frequency noise from the EKG was removed using a 45 Hz low-pass filter to enable detection of the R-waves, whenever appropriate. A threshold electrical potential value was set for each trace and the post-threshold maximum was taken as the R-wave. Each trace was visually inspected for any undetected R-waves and these were manually inserted, while incorrectly detected R-waves or non-normal beats such as extrasystoles were deleted. Time and frequency domain analysis of HRV was performed using fast Fourier-transformation with a Hanning window. Spectral power was calculated on 50% overlapped blocks on sequences of 1024 points (beats). Time-domain parameters recorded or calculated included: mean R-R interval (in ms) [i.e., NN interval, i.e., normal-to-normal intervals]; standard deviation of all normal R-R interval (SDNN, in ms), reflecting total autonomic variability; square root mean of squared differences between adjacent normal R-R intervals (RMSSD), an index for short-term variations in inter-beat intervals, primarily of parasympathetic nature; and percentage of normal consecutive inter-beat intervals differing by >7 ms (NN7%), reflecting cardiac parasympathetic tone, were calculated directly from the sequence of interval times. NN7 is a murine-adjusted value based on PNN50 determined for humans (32). The mean HR was calculated as the mean sequence of reciprocals of the interval times. For non-linear measurements on the return map of R-R intervals (Lorenz plot), the images acquired by the chart software were imported into Image J (National Institutes of Health, Bethesda) for evaluating point dispersion of S1 and S2 (see below). The width and length of the dispersion of data in Lorenz plots reflects the level of short- and long-term beat-to-beat variability, respectively. The different frequency domain measures of HRV were computed using cut-off frequencies for power in the very low frequency (VLF), low-frequency range (LF) and high-frequency range (HF) based on human studies multiplied by a factor of ten for HR adjustment (the approximate ratio between murine and human HR) (33). […]

C57BL/6 wild-type mice = assay: Mouse hind-limb ischemia model; settings: for Blood perfusion (LDPI), in words: 3 and 4 weeks after operation
Method: Mouse hind-limb ischemia model. Male C57BL/6 wild-type mice at the age of 12 months were subjected to unilateral hind-limb surgery. Briefly, the left femoral artery was exposed, ligated with 5-0 silk ligatures, and excised. Mice were injected with saline or 10 μg catestatin into thigh and calf muscles after operation and every other day for weeks 1 and 2 and 2 times per week for weeks 3 and 4. All further measurements and analyses were performed by investigators blinded to the treatment of the animals.
Blood flow measurement. Blood flow measurements were performed using a laser Doppler perfusion image (LDPI) analyzer (Moor Instruments, USA) as described. To minimize data variables attributable to ambient light and temperature animals were kept on a heating plate at 37° C. before measurement and blood perfusion is expressed as the LDPI index representing the ratio of left (=operated, ischemic leg) versus right (=not-operated, not-ischemic leg) limb blood flow. A ratio of 1 before operation indicates equal blood perfusion of both legs, whereas after femoral artery excision this ratio drops to 0.26, indicating severe attenuation of leg blood supply in the operated leg.
Alkaline phosphatase staining and Immunohistochemistry. For tissue staining, mice were sacrificed and ischemic limb tissues were retrieved after 4 weeks. Specimens were fixed in 10% (v/v) buffered formaldehyde, dehydrated with graded ethanol series and embedded in paraffin. Alternatively, fresh tissue was embedded in OCT compound (TISSUE-TEK®, Sakura Finetek) and snap-frozen in liquid nitrogen. Tissues were sliced into 5-μm sections. Vascular endothelial cells were identified by alkaline phosphatase staining and for assessment of artery/arteriole density sections were stained with a mouse monoclonal alpha-smooth muscle actin antibody (Pharmingen) as described (36). Adductor muscle samples of each leg were divided into 2 parts and capillaries (alkaline phosphatase positive) and arteries (alpha-smooth muscle actin positive) were counted in five sections of each part and are expressed as capillary and arteriole density per mm^2.

pAMPK = assay: AMPK signalling by immunoblotting of mouse tissues; settings: CgA-KO mice
From the text: Adult WT (C57BL/6) and CgA-KO mice with mixed genetic background (129svJ×C57BL/6) were used in this study. Both WT and KO mice were generated from the original founder carrying mixed genotype (50% 129svJ: 50% C57BL/6) and were maintained by brother/sister mating. Hypertensive CGA-KO mice will serve as a model for hyper insulin sensitivity. WT mice were fed 60% high fat diet (HFD) for 20 weeks. Body weight and blood glucose levels were monitored and glucose and insulin tolerance testa were performed to determine status of insulin resistance. After 20 weeks of HFD feeding mice were injected IP with catestatin (40 μg/gm body weight) twice daily for 7 days. On the 8th day, 12 hours fasted mice were subjected to glucose tolerance tests to determine their insulin sensitivity. Tissues of WT and CgA-KO mice are analyzed AMPK and eNOS signalling by immunoblotting.

SSMKLSFRARAYGFRGPGPQL [WT-CST, catestatin]
Increased baseline heart rate ([1]; CgA KO mice, parenteral CST): rescued
HRV VLF power ([1]; KO mice): 2.899±1.05 ln ms^2
Time-domain parameters of HRV (SDNN, NN7%, RMSSD) ([1]; KO mice): reversed
HRV VLF power ([1]; WT mice): 2.468±0.69 ln ms^2
Short-term and long-term variability of HRV (Lorenz analysis) ([1]; mouse, in vivo): marked improvements
Spectral peak positions ([1]; mouse, in vivo): not visibly altered
Blood perfusion (LDPI), in words (C57BL/6 wild-type mice; listed as CST): improved perfusion
Blood perfusion (LDPI), in words (C57BL/6 wild-type mice; listed as catestatin): improved blood perfusion
Capillary density, in words (C57BL/6 wild-type mice; 4 weeks): significantly increased capillary density
Density of arteries/arterioles, in words (C57BL/6 wild-type mice; 4 weeks): increases density of arteries/arterioles
Alpha-smooth muscle actin positive vessels (C57BL/6 wild-type mice; 4 weeks after surgery): 7.5±0.5 vessels/mm^2
Capillaries (alkaline phosphatase positive vessels) (C57BL/6 wild-type mice; 4 weeks after surgery): 356±17 capillaries/mm^2
LDPI ratio (C57BL/6 wild-type mice; 4 wks after induction of ischemia, 10 μg i.m.): 0.94±0.03
Perfusion ratios versus saline (C57BL/6 wild-type mice; after 3 weeks): significantly better
pAMPK signal (pAMPK): reduced
